Our source for the TGI values is PubChem BioAssay (NCI).

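Exposure lasted 48 hours, with cells grown in 96-well plates and compounds tested at five concentrations. At the TGI there is no net growth.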 Some results are limits rather than exact numbers.

Common to all, as to assay: NCI-60 cell line screen, 48 h
The subject of experiment [1] is COLO 205 colon.
The subject of experiment [2] is UACC-62 melanoma.
Experiment [3] relates to SF-268 CNS.
Experiment [4] relates to U251 CNS.
Experiment [5] relates to SN12C renal.
Experiment [6] relates to A549 NSCLC.
Experiment [7] has as its system MOLT-4 leukemia.
Experiment [8] relates to OVCAR-4 ovarian.
Experiment [9] relates to UO-31 renal.

For `[N-]=[N+]=Nc1c(C=O)c(=O)n(-c2ccccc2)c2ccccc12`, the TGI is 46.5 µM in [1]; 28.8 µM in experiment [2]; over 100 µM in experiment [3]; over 100 µM in experiment [4]; over 100 µM in experiment [5]; over 100 µM in experiment [6]. Besides, the TGI in experiment [7] came to 12.7 µM; in [8] it was 37.4 µM; in experiment [9] it was 31.9 µM.
For the compound `CCCCSC1=N/C(=C\c2ccc(N(C)C)cc2)C(NN)=N1`, the TGI in experiment [2], in [3], in [4], in experiment [5], in experiment [6] and in [7] was over 100 µM each time. The same compound showed a TGI in experiment [8] of over 100 µM.
Take `O=C(Cc1csc(N=Nc2c(O)[nH]c3ccccc23)n1)Nc1ccccc1`: the TGI was over 100 µM in experiment [1]; 41.4 µM in experiment [3]; 55.2 µM in [4]; over 100 µM in experiment [5]; over 100 µM in experiment [6]; over 100 µM in experiment [7]. The TGI in [8] was over 100 µM; in experiment [9] it was 93.3 µM.
Consider `Cc1ccc(N=N/C(=N/NC(=O)c2cc(Cl)ccc2C(=O)c2ccccc2)c2ccc(N(CCC#N)CCC#N)cc2C)cc1`, for which the TGI in experiment [1] is 27.7 µM; in [2], 36.2 µM; in experiment [3] it was over 100 µM; in experiment [4], over 100 µM; in experiment [5] it was 87.7 µM; in [6], 58.7 µM. Besides, the TGI is 26.2 µM in experiment [7], 82.4 µM in experiment [8] and over 100 µM in experiment [9].
`CCCCc1ccc(Nc2nc(=S)c3[nH]cnc3[nH]2)cc1`: the TGI in experiment [1] was 31.2 µM; in experiment [2], 35.1 µM; in experiment [3] it was over 100 µM; in experiment [4], over 100 µM; in experiment [5] it was 59 µM; in experiment [6], over 100 µM. The TGI in experiment [7] was 22.2 µM; in experiment [8], 76.4 µM; in [9], over 100 µM.
Turning to `CCOC(=O)Cc1csc2[n+]1C(=O)/C(=C/c1cccc(OC)c1O)S2`, the TGI in experiment [1], in experiment [2], in experiment [4], in [5], in [6] and in [7] was over 100 µM in each case. Moreover, the TGI in experiment [8] and in [9] was over 100 µM throughout.
On to `Cc1ccc2c(sc(-c3ccc4c(c3)sc(-c3ccc5c(c3)sc(-c3ccc(N(C)C)cc3)[n+]5C)[n+]4C)[n+]2C)c1S(=O)(=O)O` (tested in a mixture with another compound), for which the TGI in [1], in experiment [2], in experiment [3], in experiment [4], in [5] and in experiment [6] was over 100 µM in each case. Moreover, the TGI in [7], in experiment [8] and in experiment [9] was over 100 µM throughout.
`CC(C)CCC[C@@H](C)C1CCC2[C@@H]3CC=C4C[C@@H](C(=O)NCC[N+](C)(C)CCCS(=O)(=O)[O-])CC[C@]4(C)C3CC[C@@]21C` (stereo partly drawn): the TGI was 31.9 µM in [1]; 34.7 µM in experiment [2]; 37.8 µM in experiment [3]; 31.2 µM in experiment [4]; 32.6 µM in [5]; 31.7 µM in experiment [6]. Further, the results for the TGI in experiment [7], in experiment [8] and in experiment [9] were 35.1 µM, 35.9 µM and 34.3 µM, respectively.
Regarding `CC1(C)CC(=O)C2=C(C1)NC1=C(C(=O)CC(C)(C)C1)C2c1ccc([N+](=O)[O-])cc1`, the TGI in experiment [1], in [2], in [3], in experiment [4], in experiment [5] and in experiment [6] was over 100 µM each time. In addition, the TGI in experiment [7], in experiment [8] and in [9] was over 100 µM in each case.
For `C=C(C)CC1(O)C(=O)C(OCC)=C1OCC` (stereo not drawn), the TGI in experiment [1], in experiment [2], in experiment [3], in experiment [4], in experiment [5] and in experiment [6] was over 100 µM each time. For the same compound, the TGI in experiment [7], in experiment [8] and in experiment [9] was over 100 µM throughout.
Turning to `CC(C)(C)NC(=O)NC12CC3CC(CC(F)(C3)C1)C2`, the TGI in [1], in experiment [2], in [4], in experiment [6], in experiment [7] and in experiment [9] was over 100 µM throughout.
`CCOC(=O)Cc1csc2[n+]1C(=O)/C(=C\c1cccc(Cl)c1Cl)S2`: the TGI in experiment [1] came to 20.7 µM; in [2], 21.8 µM; in experiment [3] it was 80.2 µM; in [4], 64.6 µM; in experiment [5], 37.8 µM; in [6] it was 35.8 µM. Also, the results for the TGI in experiment [7], in [8] and in [9] were 33.5 µM, 42.3 µM and 27.1 µM, respectively.
Turning to `O=C(/C=C1\C[C@H]2C=Nc3ccccc3C(=O)N2C1)NCCCCNC(=O)/C=C1\C[C@H]2C=Nc3ccccc3C(=O)N2C1`, the TGI in experiment [1] was 14.8 µM; in experiment [2], 29 µM; in experiment [3], 25 µM; in [4], 11.3 µM; in experiment [5], 11.4 µM; in experiment [6] it was 49.1 µM. Moreover, the TGI came out at 26.1 µM in experiment [8] and 5.77 µM in experiment [9].
As for `COc1ccc(C2Oc3cc(OC)c(O)c(C)c3[C@H]2C)cc1` (stereo partly drawn), the TGI is over 100 µM in experiment [1]; over 100 µM in experiment [2]; over 100 µM in experiment [3]; over 100 µM in experiment [4]; over 100 µM in experiment [6]; 89.3 µM in [7]. Besides, the TGI in experiment [8] is over 100 µM; in [9], 78 µM.
With `CCOC(=O)c1c(C)cc(=O)n2c1[nH]c1ccccc12`, the TGI in experiment [1], in [2], in experiment [4], in experiment [5], in [6] and in experiment [7] was over 100 µM each time. The compound further came in with a TGI in experiment [9] of over 100 µM.
Take `CCN(CC)CCN1C(=O)c2c(c(-c3ccccc3)c3ccccc3c2-c2ccccc2)C1=O`: the TGI in [1], in experiment [2], in experiment [3], in experiment [4], in experiment [5] and in experiment [6] was over 100 µM in each case. For the same compound, the TGI in experiment [7] and in experiment [8] was over 100 µM throughout.
Take `Clc1ccccc1C1=NN(c2ccccc2)C2c3ccccc3OCC12` (stereo not drawn): the TGI in experiment [1], in [3], in experiment [4], in experiment [6], in experiment [7] and in [9] was over 100 µM throughout.
In the case of `CC1=CCC2C3(C)CCC2(C(C)C)C1C3` (stereo not drawn) (tested in a mixture with another compound), the TGI in experiment [1] was 65 µM; in experiment [2] it was over 100 µM; in experiment [3] it was 36.1 µM; in experiment [4], 50.8 µM; in experiment [5], 36.2 µM; in experiment [6] it was 39 µM. The TGI in experiment [7] is 75.3 µM; in [8], over 100 µM; in experiment [9], 82.3 µM.
`CCN(CC)CCCNc1ncc(C)c2[nH]c3ccncc3c12`: the TGI in [1] came out at 22.6 µM; in [2], 28.2 µM; in experiment [3], 32.4 µM; in [4], 30.6 µM; in experiment [5], 30.5 µM; in [6], 22.7 µM. For the same compound, the figures for the TGI in experiment [7], in [8] and in experiment [9] were 18.4 µM, 13.8 µM and over 100 µM, respectively.
With `O=C(O)CNc1ccc(C(=O)O)cc1`, the TGI in [1], in experiment [2], in experiment [3], in experiment [4], in experiment [5] and in [6] was over 100 µM each time. Moreover, the TGI in experiment [7], in [8] and in [9] was over 100 µM in each case.
Consider `CCOC(=O)C(C(=O)c1ccccc1C(=O)OC)=P(c1ccccc1)(c1ccccc1)c1ccccc1`, for which the TGI in experiment [1], in experiment [2], in experiment [3], in experiment [4], in experiment [5] and in experiment [6] was over 10 µM in each case. Moreover, the TGI in experiment [7], in experiment [8] and in [9] was over 10 µM throughout.
In the case of `S=P1(N2CCCCC2)Oc2ccc3ccccc3c2-c2c(ccc3ccccc23)O1`, the TGI in [1], in [2], in experiment [3], in [4], in experiment [5] and in experiment [6] was over 100 µM in each case. Moreover, the TGI in experiment [7] is over 100 µM; in [8] it was 97.6 µM; in experiment [9], over 100 µM.
